# According to article PMC6556873, “Rapid Covalent-Probe Discovery by Electrophile-Fragment Screening” (Journal of the American Chemical Society, 2019):
# Read-outs that look alike come from different tables or passages of the source.
# Experiments:
# in vitro [1] = test: in vitro; design: species or system HB2, CCD841; conditions: human, hek293 cells
# in vitro [2] = test: in vitro; design: species or system CCD841, HEK293; conditions: human, hb2 cells, read-out: HB-2 Cells Viability (%)
# in vitro [3] = test: in vitro; design: species or system HB2, HEK293; conditions: human, ccd841 cells
# BSA = molecular target: T1, BSA (Bos taurus, UniProt P02769); design: Intact protein LC/MS covalent labelling, fragments in pools of five, 200 uM each, 4 °C; conditions: 24 h, 4 °C, pool of five; 200 µM; covalent
# T1 construct: gene ALB
# NUDT7 = molecular target: T2, NUDT7 (Homo sapiens, UniProt P0C024); design: Intact protein LC/MS covalent labelling, fragments in pools of five, 200 uM each, 4 °C; conditions: 24 h, 4 °C, pool of five; 200 µM; covalent
# T2 construct: residues 14-235, E. coli, pNIC28-Bsa4, N-terminal His6 tag removed by TEV, construct 26672 Da
# OTUB2 (OTUB2A) = molecular target: T3, OTUB2 (OTUB2A) (Homo sapiens, UniProt Q96DC9); design: Intact protein LC/MS covalent labelling, fragments in pools of five, 200 uM each, 4 °C; conditions: 24 h, 4 °C, pool of five; 200 µM; covalent
# T3 construct: full length residues 1-234, E. coli BL21(DE3)-R3, His tag removed by TEV, construct 27312 Da
# T3 sequence (Q96DC9 1-234): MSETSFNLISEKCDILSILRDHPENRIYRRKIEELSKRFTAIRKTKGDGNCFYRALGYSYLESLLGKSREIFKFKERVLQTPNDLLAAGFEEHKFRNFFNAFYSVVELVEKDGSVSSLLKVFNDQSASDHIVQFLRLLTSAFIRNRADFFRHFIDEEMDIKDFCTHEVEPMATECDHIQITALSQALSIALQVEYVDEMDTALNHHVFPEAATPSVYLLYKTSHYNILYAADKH
# PCAF = molecular target: T4, PCAF (Homo sapiens, UniProt Q92831); design: Intact protein LC/MS covalent labelling, fragments in pools of five, 200 uM each, 4 °C; conditions: 24 h, 4 °C, pool of five; 200 µM; covalent
# T4 construct: gene KAT2B
# T4 sequence (Q92831 whole entry, the tested form may be a part): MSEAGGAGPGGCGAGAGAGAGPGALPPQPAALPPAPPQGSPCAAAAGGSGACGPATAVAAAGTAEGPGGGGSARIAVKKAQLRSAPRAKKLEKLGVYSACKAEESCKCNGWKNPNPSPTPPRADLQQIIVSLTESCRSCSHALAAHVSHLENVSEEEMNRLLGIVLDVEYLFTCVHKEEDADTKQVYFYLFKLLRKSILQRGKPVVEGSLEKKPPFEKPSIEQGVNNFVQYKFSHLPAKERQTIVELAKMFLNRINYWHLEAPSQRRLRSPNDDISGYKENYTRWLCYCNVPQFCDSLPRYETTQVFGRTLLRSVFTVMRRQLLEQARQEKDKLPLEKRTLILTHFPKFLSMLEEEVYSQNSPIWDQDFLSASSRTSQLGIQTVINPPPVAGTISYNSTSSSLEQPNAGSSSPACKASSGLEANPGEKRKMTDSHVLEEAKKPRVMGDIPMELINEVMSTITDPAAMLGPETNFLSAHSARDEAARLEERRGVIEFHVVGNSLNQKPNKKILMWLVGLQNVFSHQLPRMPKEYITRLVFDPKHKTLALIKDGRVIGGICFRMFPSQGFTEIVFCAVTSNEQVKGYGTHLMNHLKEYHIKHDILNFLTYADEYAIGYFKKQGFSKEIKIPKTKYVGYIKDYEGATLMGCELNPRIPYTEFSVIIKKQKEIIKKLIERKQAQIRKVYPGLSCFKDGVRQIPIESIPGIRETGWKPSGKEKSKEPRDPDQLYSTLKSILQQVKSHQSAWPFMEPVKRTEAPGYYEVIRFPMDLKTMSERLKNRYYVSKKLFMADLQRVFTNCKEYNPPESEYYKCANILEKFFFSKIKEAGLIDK
# T1 sequence (P02769 whole entry, the tested form may be a part): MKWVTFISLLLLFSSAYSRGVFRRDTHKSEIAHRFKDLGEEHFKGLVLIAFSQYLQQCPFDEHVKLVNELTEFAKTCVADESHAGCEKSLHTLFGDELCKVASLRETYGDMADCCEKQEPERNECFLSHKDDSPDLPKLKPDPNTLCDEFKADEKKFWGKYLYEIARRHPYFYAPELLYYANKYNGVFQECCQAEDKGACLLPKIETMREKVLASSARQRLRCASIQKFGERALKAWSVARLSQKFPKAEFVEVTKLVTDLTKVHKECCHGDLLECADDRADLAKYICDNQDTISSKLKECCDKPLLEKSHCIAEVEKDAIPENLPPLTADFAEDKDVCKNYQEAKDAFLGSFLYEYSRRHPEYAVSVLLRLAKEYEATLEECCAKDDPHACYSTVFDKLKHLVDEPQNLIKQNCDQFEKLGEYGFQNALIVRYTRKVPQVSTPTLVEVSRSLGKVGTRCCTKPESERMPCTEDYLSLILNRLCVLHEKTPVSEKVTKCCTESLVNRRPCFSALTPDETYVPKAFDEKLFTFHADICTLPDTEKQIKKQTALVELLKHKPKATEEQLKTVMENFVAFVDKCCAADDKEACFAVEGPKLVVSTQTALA
# T2 sequence (P0C024 14-235): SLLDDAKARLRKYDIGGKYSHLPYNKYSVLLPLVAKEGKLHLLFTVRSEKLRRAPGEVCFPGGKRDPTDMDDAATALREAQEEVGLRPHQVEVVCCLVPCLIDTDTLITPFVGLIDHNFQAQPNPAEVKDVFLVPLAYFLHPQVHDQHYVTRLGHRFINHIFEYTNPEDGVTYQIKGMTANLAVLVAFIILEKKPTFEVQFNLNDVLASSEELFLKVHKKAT
BSA (BSA),NUDT7 (NUDT7),OTUB2 (OTUB2 (OTUB2A)),PCAF (PCAF),SMILES,"viability at 48 h, 10 µM (in vitro [1]) [%]","viability at 48 h, 10 µM (in vitro [2]) [%]","viability at 48 h, 10 µM (in vitro [3]) [%]"
0,0,0,0,C=CC(=O)Nc1ccccc1C(F)(F)F [PCM-0102581],123,108,121
0,0,0.54,0,O=C(CCl)Nc1ccc(N2CCOCC2)cc1 [PCM-0102582],57.2,74.9,79.5
0,0,0,0,C=CC(=O)NC1CCCc2cnn(C(C)C)c21 (centres unmarked) [PCM-0102583],96.8,105,120
0,0,0,0,NC(=O)C1CCN(C(=O)CCl)CC1 [PCM-0102584],89.8,105,97.9
0,0.12,0,0,O=C(CCl)Nc1cc2c(cc1Cl)OCCO2 [PCM-0102585],15,38.7,68
0,0,0,0,Cc1cc(SC#N)cc(C)c1NC(=O)CCl [PCM-0102586],51.6,27.3,14.2
0,0,0,0,Cc1n[nH]c(C)c1NC(=O)CCl [PCM-0102588],98.6,102,98.7
0,0.15,0,0,COC(=O)c1ccccc1N(C)C(=O)CCl [PCM-0102589],58.9,92.1,89.7
0,0,0,0,O=C(CCl)Nc1cc(C(=O)O)ccc1Cl [PCM-0102590],110,103,102
0,0.14,0.12,0,CN(Cc1ccccc1Br)C(=O)CCl [PCM-0102592],39,27.4,71.9
0,0,0,0,C=CC(=O)N1CCC(C(=O)N2CCN(C(C)=O)CC2)CC1 [PCM-0102593],105,98.3,111
0,0,0,0,CCN(C(=O)CCl)C1CC1 [PCM-0102594],92.7,100,95.2
0,0,0,0,C=CC(=O)N1CCC(NC(=O)c2ccncc2)CC1 [PCM-0102595],94.7,102,102
0,0,0.13,0,O=C(CCl)NCC1CCOC1 (centres unmarked) [PCM-0102596],112,93.6,90.8
0,0,0,0,CC(NC(=O)CCl)C(=O)N1CCCCC1 (centres unmarked) [PCM-0102598],98.7,101,99.9
0,0,0,0,C=CC(=O)N1CC(c2nc(C)no2)C1 [PCM-0102599],90.9,108,102

BSA (BSA),NUDT7 (NUDT7),OTUB2 (OTUB2 (OTUB2A)),PCAF (PCAF),SMILES,"viability at 48 h, 10 µM (in vitro [1]) [%]","viability at 48 h, 10 µM (in vitro [2]) [%]","viability at 48 h, 10 µM (in vitro [3]) [%]"
0,0.05,0,0,C=CC(=O)N1CCCC2(CCS(=O)(=O)C2)C1 (centres unmarked) [PCM-0102600],98.9,107,121
0,0,0,0,C=CC(=O)NC1CCN(c2ccc(C(F)(F)F)cn2)CC1 [PCM-0102602],62.4,103,94.7
0,0,0,0,C=CC(=O)N1CC(NC(=O)C(F)(F)F)CCC1C(F)(F)F (centres unmarked) [PCM-0102603],110,97.9,104
0,0,0,0,C=CC(=O)N1CCCC(c2nnc3ccc(C(F)(F)F)cn23)C1 (centres unmarked) [PCM-0102606],126,107,111
0,0,0,0,C=CC(=O)N1CCCC(NC(=O)c2ccc(C(F)(F)F)cc2)C1 (centres unmarked) [PCM-0102607],114,98.9,100
0,0,0.06,0,C=CC(=O)N1CCCC(CC(=O)OC(C)(C)C)CC1 (centres unmarked) [PCM-0102609],90.6,106,104
0,0,0.37,0,O=C(CCl)Nc1ccc(N2CCCCC2)cc1 [PCM-0102612],57.2,41.7,55.2
0,0.23,0.27,0,O=C(CCl)NC(=O)Nc1ccc2c(c1)OCCO2 [PCM-0102614],80.3,88.7,83.6
0,0,0,0,O=C(CCl)N1CCOC(c2ccc(F)cc2)C1 (centres unmarked) [PCM-0102615],4.8,2,12.6
0,0,0.1,0,O=C(CCl)NC1CCN(C(=O)c2ccco2)CC1 [PCM-0102619],84.6,105,101
0,0.36,0.16,0,NC(=O)c1c(NC(=O)CCl)sc2c1CCCC2 [PCM-0102620],29.6,42.3,73.1
0,0,0,0,C=CC(=O)N1CCn2c(cc3ccccc32)C1 [PCM-0102621],85.7,106,114
0,0,0.32,0,CC(C)(C)c1ccc(NC(=O)CCl)cc1 [PCM-0102622],10.3,12.6,38.7
0,0,0,0,Cc1ccc(C(=O)O)cc1NC(=O)CCl [PCM-0102624],86.2,102,108
0,0,0,0,O=C(CCl)N1CCCc2cc(S(=O)(=O)N3CCCC3)ccc21 [PCM-0102625],2.5,5.4,12.2
0,0,0,0,C=CC(=O)Nc1ccc(C)cn1 [PCM-0102627],78.8,96.7,84.1
